System: NOMO1
Assay: cell viability relative to DMSO control; higher = less cytotoxic
Conditions: 48 h
Procedure, shortened: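 Viability was expressed as a per-plate percentage of DMSO wells, with cell-free wells as background. Leukemia cells (NOMO1 or SEM at 500 cells/well, P12-Ichikawa at 1000 cells/well) were adapted for at least four passages in each medium and seeded in 1536-well plates (5 μl). Library compounds in DMSO were pin-dosed over an 11-point threefold series from 47 μM to 0.79 nM, and CellTiter-Glo One luminescence was read after 48 h at 37°C.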

[1] = HPLM + 10% dialyzed FBS, 0.000781 µM
[2] = HPLM + 10% dialyzed FBS, 0.00234 µM
[3] = HPLM + 10% dialyzed FBS, 0.00702 µM
[4] = HPLM + 10% dialyzed FBS, 0.0211 µM
[5] = HPLM + 10% dialyzed FBS, 0.0632 µM
[6] = HPLM + 10% dialyzed FBS, 0.19 µM
[7] = HPLM + 10% dialyzed FBS, 0.569 µM
[8] = HPLM + 10% dialyzed FBS, 1.71 µM
[9] = HPLM + 10% dialyzed FBS, 5.12 µM
[10] = HPLM + 10% dialyzed FBS, 15.4 µM
[11] = HPLM + 10% dialyzed FBS, 46.1 µM
[12] = RPMI 5 mM glucose + 10% FBS, 0.000781 µM
[13] = RPMI 5 mM glucose + 10% FBS, 0.00234 µM
[14] = RPMI 5 mM glucose + 10% FBS, 0.00702 µM
[15] = RPMI 5 mM glucose + 10% FBS, 0.0211 µM
[16] = RPMI 5 mM glucose + 10% FBS, 0.0632 µM
[17] = RPMI 5 mM glucose + 10% FBS, 0.19 µM
[18] = RPMI 5 mM glucose + 10% FBS, 0.569 µM
[19] = RPMI 5 mM glucose + 10% FBS, 1.71 µM
[20] = RPMI 5 mM glucose + 10% FBS, 5.12 µM
[21] = RPMI 5 mM glucose + 10% FBS, 15.4 µM
[22] = RPMI 5 mM glucose + 10% FBS, 46.1 µM
[23] = RPMI 5 mM glucose + 10% dialyzed FBS, 0.000781 µM
[24] = RPMI 5 mM glucose + 10% dialyzed FBS, 0.00234 µM
[25] = RPMI 5 mM glucose + 10% dialyzed FBS, 0.00702 µM
[26] = RPMI 5 mM glucose + 10% dialyzed FBS, 0.0211 µM
[27] = RPMI 5 mM glucose + 10% dialyzed FBS, 0.0632 µM
[28] = RPMI 5 mM glucose + 10% dialyzed FBS, 0.19 µM
[29] = RPMI 5 mM glucose + 10% dialyzed FBS, 0.569 µM
[30] = RPMI 5 mM glucose + 10% dialyzed FBS, 1.71 µM
[31] = RPMI 5 mM glucose + 10% dialyzed FBS, 5.12 µM
[32] = RPMI 5 mM glucose + 10% dialyzed FBS, 15.4 µM
[33] = RPMI 5 mM glucose + 10% dialyzed FBS, 46.1 µM

SMILES	cell viability [1] [%]	cell viability [2] [%]	cell viability [3] [%]	cell viability [4] [%]	cell viability [5] [%]	cell viability [6] [%]	cell viability [7] [%]	cell viability [8] [%]	cell viability [9] [%]	cell viability [10] [%]	cell viability [11] [%]	cell viability [12] [%]	cell viability [13] [%]	cell viability [14] [%]	cell viability [15] [%]	cell viability [16] [%]	cell viability [17] [%]	cell viability [18] [%]	cell viability [19] [%]	cell viability [20] [%]	cell viability [21] [%]	cell viability [22] [%]	cell viability [23] [%]	cell viability [24] [%]	cell viability [25] [%]	cell viability [26] [%]	cell viability [27] [%]	cell viability [28] [%]	cell viability [29] [%]	cell viability [30] [%]	cell viability [31] [%]	cell viability [32] [%]	cell viability [33] [%]
CN(C)c1ccc(C(=O)NCCCCCCC(=O)NO)cc1	106	103	104	94.9	106	83.5	112	89	7.42	3.13	3.88	91.1	90.6	103	92.3	95.8	99.8	91.4	92	6.22	2.81	2.37	102	103	124	106	112	105	106	89	7.05	3.1	3.05
Nc1ccc([S+](=O)([O-])Nc2ccccn2)cc1	122	106	122	117	106	115	140	133	116	124	87.6	110	106	111	113	121	125	112	118	126	108	79.8	120	121	114	109	112	121	122	130	109	115	58.1
CCc1cc(/C(C)=N/OCc2ccc(C3CCCCC3)c(C(F)(F)F)c2)ccc1CN1CC(C(=O)O)C1	111	133	106	108	129	109	108	79.1	66.4	31.8	40.1	110	113	104	115	135	115	120	107	107	26.8	20.9	99	116	117	112	119	114	115	103	103	26.6	29
CC(C)[C@H](CO)Nc1nc(Nc2ccc(C(=O)O)c(Cl)c2)c2ncn(C(C)C)c2n1	116	126	122	132	128	118	109	108	79.4	107	29.6	119	116	118	128	134	131	131	115	87.3	111	36.1	122	125	123	137	124	140	127	122	90.7	137	44.1
CN(C(=O)c1ccc(F)cc1C(F)(F)F)C1CCN(c2nnc(-c3ccnn3C)c3ccccc23)CC1	61.1	79	87.1	83.2	102	97.8	83.4	95.2	85.2	88.8	77.9	66	71.6	69.4	83.3	82.3	84.8	11.9	82.8	79.6	76.6	75	76	85.4	79.9	86.8	77.6	86.3	77.1	80.7	82.2	78	41.9
O=C(C1CCCCC1)N1CC(=O)N2CCc3ccccc3C2C1 (stereo not given)	106	147	125	125	126	130	140	110	108	107	114	–	–	–	–	–	–	–	–	–	–	–	–	–	–	–	–	–	–	–	–	–	–
O=C(Oc1ccc([N+](=O)[O-])cc1)N1CCN(Cc2cccc(Oc3ccccc3)c2)CC1	115	110	112	113	113	126	104	126	120	102	122	95.6	101	112	113	113	123	110	105	110	109	112	93.9	98.5	103	99.8	99.9	98.3	103	114	104	112	105
C[Se]CCC(N)C(=O)O (stereo not given)	90.1	90.2	85.7	95.7	99.3	93	93.1	59.1	83.5	69	73.7	79.9	83.5	97.2	84.4	88.5	83.3	89.3	86.7	79.4	84	79	77.2	87.3	85.4	81.9	91.1	89.1	73.1	77	95.7	74.2	76.2
CN(C)CCC=C1C2=C(C=CC=C2)\C=C/C3=C1C=CC=C3	–	–	–	–	–	–	–	–	–	–	–	108	100	95.5	98	95.9	90.3	98.7	106	94	77	16.4	98.7	99	107	104	114	103	107	95.3	99.3	66.6	21.2
CC(Oc1ccc(O)cc1)(P(=O)(O)O)P(=O)(O)O	94.2	115	91.7	92.8	99.5	93.5	91.3	85.8	103	42.6	17.3	91.6	88	87.4	83.7	94.8	101	90.4	85.7	78.5	73.7	14.6	94.8	100	87.9	93	84.9	95.8	92	91	83.9	64.8	14.4
CC1(C)OC/2=C(\[C@H](NCC3=CC=CC=C3)[C@@H]1O)C(=O)C4=CC=CC=C4C2=O	112	36.5	117	101	104	96.1	108	82.5	37.6	22.4	7.72	89.7	99.6	89.2	95.5	86.7	93.8	95	98.2	37.4	17.5	5.95	86.7	90.2	88.1	89.3	98.3	92.6	97.6	86.9	60.2	26.7	5.24
CCC(CC)[C@H](NC(C)=O)[C@@H]1[C@H](O)[C@@H](C(=O)O)C[C@H]1NC(=N)N	67.7	72	78	85	80.9	96.4	90.3	90.8	87.7	82.8	94.9	81.8	85	88.7	85.8	89	84.3	90	87.1	84.1	79.5	81.1	80.4	79.7	82.6	80.4	93	83	90.2	81.7	78.2	78.3	83.1
CC1=C(C)C2=C(S1)[N]3C(=NN=C3[C@H](CC(=O)OC(C)(C)C)/N=C2/C4=CC=C(Cl)C=C4)C	104	97.6	92	102	96.1	70.7	28.9	52.4	15.7	10.5	10.1	88.2	99.2	96.4	88.4	86.2	81.8	27.3	50.5	12.1	10.6	11.1	101	97.5	92.5	87.7	96.8	81.9	29.5	55.3	11.7	10.6	10.5
Cn1cc(-c2ccc3ncc(Cc4ccc5ncccc5c4)n3n2)cn1	102	96.5	99.8	110	100	102	111	120	110	105	91.7	99.2	108	102	96.4	115	110	118	111	102	97.6	102	84.9	110	97.4	112	105	105	114	110	99	94.4	99.7
CC1(C)CC(=O)c2c(C(F)(F)F)nn(-c3ccc(C(N)=O)c(NC4CCC(OC(=O)CN)CC4)c3)c2C1 (stereo not given)	94.8	92.8	104	99	102	84.5	27.3	17.8	13.5	17.5	15.7	92.5	110	92.4	92.9	84.2	88.9	20.6	11.2	9.75	9.88	11.1	94.4	103	109	93.2	89.2	76	21.3	15.8	13.4	14.1	15.9
COc1ccc([C@@H]2CNC(=O)C2)cc1OC1CCCC1	106	108	108	111	117	114	136	114	117	118	116	112	111	106	96.7	114	107	104	112	99.7	105	107	92.6	101	119	105	114	115	105	115	112	105	119
